# Assay results published in ChEMBL document CHEMBL5614394, “Novel pleuromutilin derivatives conjugated with phenyl-sulfide and boron-containing moieties as potent antibacterial agents against antibiotic-resistant bacteria” (Eur J Med Chem, 2024).
# Legend:
# Assay type in all cases: functional
# [1] = tested on: Staphylococcus epidermidis; experiment: Antibacterial activity against Staphylococcus epidermidis ATCC 12228 assessed as inhibition of visible growth of bacteria incubated for 24 hrs by CLSI protocol based broth-dilution method
# Staphylococcus aureus [2] = experiment: Antibacterial activity against Staphylococcus aureus ATCC 29213 assessed as inhibition of visible growth of bacteria incubated for 24 hrs by CLSI protocol based broth-dilution method
# Enterococcus faecium [3] = experiment: Antibacterial activity against pleuromutilin-resistant Enterococcus faecium 18SC29-2 harboring (lsa(E)-) genotype assessed as inhibition of visible growth of bacteria incubated for 24 hrs by CLSI protocol based broth-dilution method
# Staphylococcus aureus [4] = experiment: Antibacterial activity against methicillin-resistant Staphylococcus aureus J1 harboring (lsa(E)+) genotype assessed as inhibition of visible growth of bacteria incubated for 24 hrs by CLSI protocol based broth-dilution method
# Staphylococcus simulans = experiment: Antibacterial activity against pleuromutilin-resistant Staphylococcus simulans isolate 55-1 harboring cfr+ genotype assessed as inhibition of visible growth of bacteria incubated for 24 hrs by CLSI protocol based broth-dilution method
# Enterococcus faecium [5] = experiment: Antibacterial activity against pleuromutilin-resistant Enterococcus faecium 18FJZ1-1 harboring (lsa(E)+) genotype assessed as inhibition of visible growth of bacteria incubated for 24 hrs by CLSI protocol based broth-dilution method
Compound,MIC [1] [µg/mL],MIC (Staphylococcus aureus [2]) [µg/mL],MIC (Enterococcus faecium [3]) [µg/mL],MIC (Staphylococcus aureus [4]) [µg/mL],MIC (Staphylococcus simulans) [µg/mL],MIC (Enterococcus faecium [5]) [µg/mL]
C=C[C@]1(C)C[C@@H](OC(=O)CSc2cccc(NC(=O)c3cccc(B4OC(C)(C)C(C)(C)O4)c3)c2)[C@]2(C)[C@H](C)CC[C@]3(CCC(=O)[C@H]32)[C@@H](C)[C@@H]1O,0.063,0.063,–,–,–,–
C=C[C@]1(C)C[C@@H](OC(=O)CSc2cccc(NC(=O)c3ccc(B(O)O)cc3Cl)c2)[C@]2(C)[C@H](C)CC[C@]3(CCC(=O)[C@H]32)[C@@H](C)[C@@H]1O,1,0.063,–,–,–,–
C=C[C@]1(C)C[C@@H](OC(=O)CSC(C)(C)CNC(=O)[C@H](N)C(C)C)[C@]2(C)[C@H](C)CC[C@]3(CCC(=O)[C@H]32)[C@@H](C)[C@@H]1O [VALNEMULIN],–,–,≤ 0.06,> 32,8,8
C=C[C@]1(C)C[C@@H](OC(=O)CSc2cccc(NCc3ccccc3B(O)O)c2)[C@]2(C)[C@H](C)CC[C@]3(CCC(=O)[C@H]32)[C@@H](C)[C@@H]1O,0.031,0.031,–,–,–,–

# Further lines, with some results ahead:
MIC [1] [µg/mL],MIC (Staphylococcus aureus [2]) [µg/mL],Compound,MIC (Enterococcus faecium [3]) [µg/mL],MIC (Staphylococcus aureus [4]) [µg/mL],MIC (Staphylococcus simulans) [µg/mL],MIC (Enterococcus faecium [5]) [µg/mL]
0.5,0.063,C=C[C@]1(C)C[C@@H](OC(=O)CSc2ccc(NC(=O)c3ccc(B(O)O)cc3)cc2)[C@]2(C)[C@H](C)CC[C@]3(CCC(=O)[C@H]32)[C@@H](C)[C@@H]1O,–,–,–,–
0.063,0.5,C=C[C@]1(C)C[C@@H](OC(=O)CSc2cccc(NC(=O)c3ccc(B(O)O)o3)c2)[C@]2(C)[C@H](C)CC[C@]3(CCC(=O)[C@H]32)[C@@H](C)[C@@H]1O,–,–,–,–
0.031,0.031,C=C[C@]1(C)C[C@@H](OC(=O)CSc2cccc(NC(=O)c3ccc(B(O)O)c(F)c3F)c2)[C@]2(C)[C@H](C)CC[C@]3(CCC(=O)[C@H]32)[C@@H](C)[C@@H]1O,–,–,–,–
16,0.063,C=C[C@]1(C)C[C@@H](OC(=O)CSc2ccc(NC(=O)c3ccc(F)c(B(O)O)c3)cc2)[C@]2(C)[C@H](C)CC[C@]3(CCC(=O)[C@H]32)[C@@H](C)[C@@H]1O,–,–,–,–
